System: potassium channel
Experiment: potassium channel activating activity: reduction of potassium chloride-induced contractions of rat hepatic portal veins
Details: isolated hepatic portal veins, male Sprague-Dawley rats; Krebs solution, 37° C.; further 20 mmol of potassium chloride; isometric tension; read-out: IC50 (concentration of test substance producing a half-maximal reduction of the contractions caused by the potassium chloride)
Experimental: Hepatic portal veins are removed from male Sprague-Dawley rats and suspended in organ baths under an initial tension of 0.5 g for the isometric recording of tension. The veins are incubated in Krebs solution (consisting of 118 mM of sodium chloride, 25 mM of sodium hydrogen carbonate, 10.5 mM of D-glucose, 4.7 mM of potassium chloride, 0.4 mM of magnesium sulphate, 1.2 mM of potassium dihydrogen phosphate and 2.5 mM of calcium chloride) which is gassed with 95% oxygen and 5% carbon dioxide and maintained at 37° C. After incubation for 0.5 hour to 1 hour a further 20 mmol of potassium chloride is added followed after 0.25 hour to 0.5 hour by increasing concentrations of the test substance. The activity of the test substance is expressed as the IC50 value, which is the concentration of test substance producing a half-maximal reduction of the contractions caused by the potassium chloride.

Row | IC50 | Structure (SMILES)
1 | 3100 ± 800 nM | CC1(C)C=C(c2cc(C#N)ccc2O)c2cc(C#N)ccc2O1 [Compound H, 4-(5-cyano-2-hydroxyphenyl)-2,2-dimethyl-2H-1-benzopyran-6-carbonitrile]
2 | 14 ± 1 nM | CC1(C)CC(c2cccc[n+]2[O-])c2cc([N+](=O)[O-])ccc2O1 (centres unmarked) [Compound C, 2-(3,4-dihydro-2,2-dimethyl-6-nitro-2H-1-benzopyran-4-yl)pyridine N-oxide]
3 | 15 ± 0.5 nM | CC1(C)C=C(c2ccc(-c3ccccc3)c[n+]2[O-])c2cc(C#N)ccc2O1 [Compound E, 2-(6-cyano-2,2-dimethyl-2H-1-benzopyran-4-yl)-5-phenylpyridine N-oxide]
4 | 280 ± 30 nM | CC1(C)Oc2ccc(C#N)cc2[C@@H](c2cccc[n+]2[O-])[C@@H]1O (racemic) [Compound F, rac-trans-2-(6-cyano-3,4-dihydro-3-hydroxy-2,2-dimethyl-2H-1-benzopyran-4-yl)pyridine N-oxide]
5 | 160 ± 20 nM | CC1(C)CC(c2cccc[n+]2[O-])c2cc(C#N)ccc2O1 (centres unmarked) [Compound A, 2-(6-cyano-3,4-dihydro-2,2-dimethyl-2H-1-benzopyran-4-yl)pyridine N-oxide]
6 | 38 ± 2 nM | CC1(C)C=C(c2cccc[n+]2[O-])c2cc(C#N)ccc2O1 [Compound B, 2-(6-cyano-2,2-dimethyl-2H-1-benzopyran-4-yl)pyridine N-oxide]
7 | 19 ± 1.2 nM | CCC1(C)C=C(c2cccc[n+]2[O-])c2cc(C#N)ccc2O1 (centres unmarked) [Compound G, 2-(6-cyano-2-ethyl-2-methyl-2H-1-benzopyran-4-yl)pyridine N-oxide]
8 | 560 ± 70 nM | CC(=O)c1ccc2c(c1)C(c1cccc[n+]1[O-])CC(C)(C)O2 (centres unmarked) [Compound D, 2-(6-acetyl-3,4-dihydro-2,2-dimethyl-2H-1-benzopyran-4-yl)pyridine N-oxide]
